Assay results from patent publication US11214803B2, “Modulators of YAP1 expression” (Ionis Pharmaceuticals, Inc., priority 2019, dated 2022).
Strand notation (5' to 3'): a small letter for the sugar, then the base; units joined by * are phosphorothioate-linked, units joined directly phosphodiester-linked; [ ] holds rarer units or linkages, { } end groups; capitals alone tell only the bases. k = constrained ethyl (cEt); [5mC] = 5-methylcytosine; d = 2'-deoxy (DNA)

Tested on: Yap1 mRNA
Assay: Antisense inhibition of human Yap1 in A-431 cells by cEt gapmers, single dose (Example 3, RTS36584)
Format: cell-based
Details: Table 8; A-431 cells, 5,000 cells per well, free uptake, 2,000 nM, approximately 48 hours; RTS36584; normalized to RIBOGREEN; Yap1 mRNA relative to untreated control cells
In short: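 A-431 cells (5,000/well) took up the 3-10-3 cEt gapmers by free uptake at 2,000 nM for about 48 h. Yap1 mRNA was measured by RT-qPCR with primer probe set RTS36584, normalized to RiboGreen total RNA, and given as % of untreated control.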

Row | Substance | YAP1 (% UTC)
1 | 958352 (k[5mC]*kG*kG*dT*d[5mC]*dT*d[5mC]*d[5mC]*dG*dA*dG*dT*d[5mC]*k[5mC]*k[5mC]*k[5mC]; antisense) [Compound 958352] | 110 % UTC
2 | 958365 (antisense kG*k[5mC]*k[5mC]*dA*dT*dG*dT*dT*dG*dT*dT*dG*dT*k[5mC]*kT*kG) [Compound 958365] | 34 % UTC

Same assay, conditions: Table 9; A-431 cells, 5,000 cells per well, free uptake, 2,000 nM, approximately 48 hours; RTS36584; normalized to RIBOGREEN; Yap1 mRNA relative to untreated control cells

Row | Substance | YAP1 (% UTC)
3 | 958496 (k[5mC]*k[5mC]*kT*dT*dA*dT*dA*dA*dG*d[5mC]*dT*d[5mC]*d[5mC]*kT*kA*kA; antisense) [Compound 958496] | 3 % UTC
4 | 958736 (antisense kG*kT*kG*dA*dT*dA*dT*dG*dG*dA*dT*dT*d[5mC]*kT*kG*kT) [Compound 958736] | 3 % UTC
5 | 958701 (antisense kT*kT*kA*dA*dA*d[5mC]*dT*dA*dG*dG*d[5mC]*dA*d[5mC]*kA*kT*kT) [Compound 958701] | 98 % UTC
6 | 958621 (antisense kA*kA*k[5mC]*dG*dA*dG*dG*dG*dT*d[5mC]*dA*dA*dG*k[5mC]*k[5mC]*kT) [Compound 958621] | 29 % UTC
7 | 958766 (antisense kT*kA*kA*d[5mC]*dA*dT*dA*dT*dG*dT*d[5mC]*dT*dA*k[5mC]*kT*k[5mC]) [Compound 958766] | 23 % UTC
8 | 958686 (antisense k[5mC]*kG*k[5mC]*dA*dA*dT*dA*dT*dA*dG*dT*d[5mC]*dT*kA*kT*kA) [Compound 958686] | 4 % UTC

Same assay, conditions: Table 10; A-431 cells, 5,000 cells per well, free uptake, 2,000 nM oligonucleotide, approx. 48 hours; primer probe set RTS36584; Yap1 mRNA normalized to RIBOGREEN, percent of untreated control

Row | Substance | YAP1 (% UTC)
9 | 958642 (antisense kG*kA*k[5mC]*dA*dT*d[5mC]*dA*dA*dT*dT*dT*d[5mC]*dA*kG*kT*k[5mC]) [Compound 958642] | 91 % UTC
10 | 958567 (kT*k[5mC]*kA*dA*d[5mC]*d[5mC]*dT*dA*dT*dG*dA*dA*d[5mC]*kT*kA*kT; antisense) [Compound 958567] | 3 % UTC
11 | 958792 (antisense kG*k[5mC]*k[5mC]*dA*dA*dT*dG*dG*dA*dG*dT*d[5mC]*dA*k[5mC]*k[5mC]*kA) [Compound 958792] | 46 % UTC
12 | 958652 (kG*k[5mC]*kT*dA*d[5mC]*dG*dA*d[5mC]*dG*dG*d[5mC]*dT*dG*kG*k[5mC]*k[5mC]; antisense) [Compound 958652] | 136 % UTC
13 | 958657 (k[5mC]*kA*kG*dT*dA*dT*dA*dA*dT*dA*dT*d[5mC]*d[5mC]*kT*kA*kA; antisense) [Compound 958657] | 37 % UTC

Same assay, conditions: Table 11; A-431 cells, 5,000 cells per well, free uptake, 2,000 nM oligonucleotide, approx. 48 hours; primer probe set RTS36584; Yap1 mRNA normalized to RIBOGREEN, percent of untreated control

Row | Substance | YAP1 (% UTC)
14 | 958683 (kT*kA*kT*dT*dG*dT*dG*d[5mC]*dT*dG*d[5mC]*dA*dT*k[5mC]*kT*k[5mC]; antisense) [Compound 958683] | 16 % UTC
15 | 958518 (k[5mC]*k[5mC]*kA*d[5mC]*dA*dG*dT*dA*dA*dT*dA*dG*d[5mC]*kT*k[5mC]*kT; antisense) [Compound 958518] | 1 % UTC
16 | 958778 (antisense kG*k[5mC]*kT*dA*d[5mC]*d[5mC]*dT*dG*dG*dA*dG*d[5mC]*dG*kA*kA*kG) [Compound 958778] | 75 % UTC
17 | 958608 (antisense kT*kG*kA*dT*dA*dG*dG*d[5mC]*dA*d[5mC]*dA*d[5mC]*d[5mC]*k[5mC]*kA*k[5mC]) [Compound 958608] | 11 % UTC

Same assay, conditions: Table 12; A-431 cells, 5,000 cells per well, free uptake, 2,000 nM modified oligonucleotide, approx. 48 hours; RTS36584; normalized to RIBOGREEN; Yap1 mRNA relative to untreated control cells

Row | Substance | YAP1 (% UTC)
18 | 958759 (antisense kG*k[5mC]*k[5mC]*dT*dA*dT*d[5mC]*dG*d[5mC]*d[5mC]*d[5mC]*d[5mC]*dA*kA*kG*k[5mC]) [Compound 958759] | 61 % UTC
19 | 958609 (antisense kT*kG*kA*d[5mC]*dA*dA*dG*dT*dG*dT*dG*d[5mC]*dA*kT*kT*kA) [Compound 958609] | 16 % UTC
20 | 958629 (antisense k[5mC]*k[5mC]*k[5mC]*dG*dA*dG*dT*dG*dG*dG*d[5mC]*dT*dA*kA*k[5mC]*kT) [Compound 958629] | 128 % UTC
21 | 958574 (k[5mC]*kT*kG*dG*d[5mC]*dA*dA*dA*dT*dT*dA*dT*dA*kG*kG*k[5mC]; antisense) [Compound 958574] | 13 % UTC

Same assay, conditions: Table 13; A-431 cells, 5,000 cells per well, free uptake, 2,000 nM modified oligonucleotide, approx. 48 hours; RTS36584; normalized to RIBOGREEN; Yap1 mRNA relative to untreated control cells

Row | Substance | YAP1 (% UTC)
22 | 958750 (antisense kT*kG*kT*dA*dA*dG*dA*dG*dG*dA*dG*dA*d[5mC]*k[5mC]*kA*k[5mC]) [Compound 958750] | 28 % UTC
23 | 958710 (antisense kA*kG*kG*dG*dA*dA*d[5mC]*d[5mC]*d[5mC]*dT*dT*dG*dG*k[5mC]*kT*kA) [Compound 958710] | 77 % UTC

Same assay, conditions: Table 26; Yap1 mRNA by 3-10-3 cEt gapmers targeting SEQ ID NO.: 1, and 2; percent of untreated control

Row | Substance | YAP1 (% UTC)
24 | 1075340 (antisense k[5mC]*k[5mC]*k[5mC]*dG*dA*dA*d[5mC]*dA*d[5mC]*d[5mC]*d[5mC]*dA*dA*kA*kA*kA) [compound 1075340] | 103 % UTC
25 | 1074572 (DNA kT*kT*kA*dT*dG*dA*dA*d[5mC]*d[5mC]*dT*dA*d[5mC]*dT*k[5mC]*kA*k[5mC]) [compound 1074572] | 17 % UTC
26 | 1074252 (antisense kG*kG*kA*d[5mC]*dA*dG*d[5mC]*dA*dT*dG*dG*d[5mC]*d[5mC]*kT*kT*k[5mC]) [compound 1074252] | 50 % UTC
27 | 1074988 (antisense kA*k[5mC]*k[5mC]*dG*d[5mC]*dG*dG*d[5mC]*dG*dG*dA*dG*dT*kG*kG*kA) [compound 1074988] | 94 % UTC

Same assay, conditions: Table 27; Yap1 mRNA by 3-10-3 cEt gapmers targeting SEQ ID NO.: 1, and 2; percent of untreated control

Row | Substance | YAP1 (% UTC)
28 | 1074861 (kT*kG*k[5mC]*dT*d[5mC]*dT*dT*dA*d[5mC]*dA*dT*d[5mC]*dT*kA*kA*kA; antisense) [compound 1074861] | 23 % UTC
29 | 1075341 (antisense kG*k[5mC]*kT*dG*dA*dA*d[5mC]*dA*dA*dT*d[5mC]*dT*d[5mC]*k[5mC]*k[5mC]*kG) [compound 1075341] | 31 % UTC
30 | 1075277 (antisense kT*kT*kA*dT*dA*dA*dG*dA*dA*d[5mC]*dT*dG*dT*kG*kG*k[5mC]) [compound 1075277] | 13 % UTC
31 | 1076013 (kG*kT*kT*dT*dA*dA*dT*dA*d[5mC]*d[5mC]*dT*d[5mC]*dT*kG*kA*k[5mC]; antisense) [compound 1076013] | 76 % UTC
32 | 1075405 (antisense k[5mC]*kT*kA*dT*dA*dT*dA*dA*d[5mC]*d[5mC]*dT*dG*dA*kA*k[5mC]*kT) [compound 1075405] | 84 % UTC

Same assay, conditions: Table 28; Yap1 mRNA as percent of untreated control; 3-10-3 cEt gapmers targeting SEQ ID NO.: 1, and 2

Row | Substance | YAP1 (% UTC)
33 | 1074382 (kA*kG*kG*dT*dA*dG*dT*d[5mC]*dT*dG*dG*dG*dA*kA*kA*k[5mC]; antisense) [compound 1074382] | 8 % UTC
34 | 1075598 (antisense kA*kA*kT*dT*dA*dA*d[5mC]*dA*dT*dT*dT*dG*d[5mC]*k[5mC]*k[5mC]*kG) [compound 1075598] | 62 % UTC
35 | 1075406 (antisense kA*k[5mC]*kT*dA*dT*dA*dT*dA*dA*d[5mC]*d[5mC]*dT*dG*kA*kA*k[5mC]) [compound 1075406] | 99 % UTC
36 | 1076110 (k[5mC]*kT*kT*dT*dA*d[5mC]*d[5mC]*dT*dA*dA*dA*dT*dG*kT*kT*kG; antisense) [compound 1076110] | 53 % UTC
37 | 1076142 (kA*kT*kA*d[5mC]*dG*dA*dA*dA*dA*dA*dA*dG*d[5mC]*k[5mC]*kA*kA; antisense) [compound 1076142] | 38 % UTC

Same assay, conditions: Table 29; Yap1 mRNA as percent of untreated control; 3-10-3 cEt gapmers targeting SEQ ID NO.: 1, and 2

Row | Substance | YAP1 (% UTC)
38 | 1076431 (k[5mC]*kA*k[5mC]*d[5mC]*dA*dA*dT*dA*dG*dA*dA*d[5mC]*dA*kT*kA*kT; antisense) [compound 1076431] | 31 % UTC
39 | 1075087 (antisense kT*k[5mC]*kT*d[5mC]*dA*dA*dT*dA*dA*dG*dT*dT*dA*kT*kA*kG) [compound 1075087] | 39 % UTC

Same assay, conditions: Table 34; Yap1 mRNA as percent of untreated control; 3-10-3 cEt gapmers targeting SEQ ID NO: 1 and 2; single dose

Row | Substance | YAP1 (% UTC)
40 | 1075220 (kA*kA*kT*dT*dT*dT*dA*dA*d[5mC]*dT*dG*dT*dG*kA*k[5mC]*k[5mC]; antisense) [compound 1075220] | 24 % UTC
41 | 1075092 (kT*kT*kA*dA*dA*dA*d[5mC]*dA*dA*d[5mC]*dG*dA*dA*kT*kG*kA; antisense) [compound 1075092] | 63 % UTC

Same assay, conditions: Table 35; Yap1 mRNA as percent of untreated control; 3-10-3 cEt gapmers targeting SEQ ID NO: 1 and 2; single dose

Row | Substance | YAP1 (% UTC)
42 | 1076213 (kT*k[5mC]*kT*d[5mC]*dA*dA*dG*dG*dA*dA*dT*dT*dG*k[5mC]*k[5mC]*kT; antisense) [compound 1076213] | 27 % UTC
43 | 1075477 (k[5mC]*kT*kT*dT*dA*dT*d[5mC]*dT*d[5mC]*dA*d[5mC]*dT*dA*kG*k[5mC]*kT; antisense) [compound 1075477] | 86 % UTC
